Laboratory results published in patent publication US20230285405A1, “Pharmaceuticals for Treating or Preventing Nidoviruses and Picornaviruses” (priority 2020, published 2023).
Where a name gives a salt, the structure may show the parent alone. Read-outs that look alike come from different tables or passages of the source.

Tests used:
OC43 = test: Drug screening: OC43 nucleoprotein staining in infected A549-mRuby cells; assay type: cell-based, human beta coronavirus OC43; settings: for activity at 10 µM: Betacoronavirus 1, OC43, 96 h
Description: A549-mRuby cells were seeded (3,000 cells per well) in nine 384-well plates using Multidrop combi. Cells were seeded in a final volume of 30 μl with DMEM+10% BCS. The following day, 20 μl of OC43 were added (MOI 0.3) and incubated at 33° C., 5% CO2 for 1 hour. 50 nl from the Selleck FDA-approved drug library (cat #L1300, Selleck) were added (1:1,000 dilution). Two columns (32 wells) were left uninfected and two columns were treated with DMSO and virus (no drug control). Cells were imaged using the IncuCyte S3 to measure cell numbers at day 0. Cells were incubated for 4 days at 33° C., 5% CO2 and were stained for OC43 nucleoprotein. All the following steps were performed at room temperature. Cells were fixed in 50 μl 4% PFA/PBS for 15 min, blocked with 50 μl 10% BSA+0.5% Triton X-100 in PBS for 30 minutes, stained with 50 μl anti-OC43 (cat #MAB9013, Milipore) diluted 1:2,000 in 2% BSA+0.1% Triton X-100 in PBS for 1 hour, washed with 50 μl PBS three times, stained with anti-mouse-AlexaFluor488 diluted 1:1,000 in 2% BSA+0.1% Triton X-100 in PBS for 1 hour, washed with 50 μl PBS three times and imaged on the IncuCyte S3 (day 4). The screen was performed twice.
(§1) The following parameters were extracted from the images: number of cells at day 0, number of cells at day 4 and total OC43 staining intensity at day 4. For analysis, OC43 staining intensity was normalized to the number of cells in the well and further normalized to the mean of the no drug controls, which was set to 100. […] For each plate, a drug was considered as a putative hit if it reduced OC43 staining by over 3 standard deviations from the mean of the no drug controls. Drugs were considered hits if they were not toxic and reduced OC43 staining by over 3 standard deviations in both repeats.
(§2) A library of 1,900 clinically used drugs was screened, the drugs either approved for human use or having extensive safety data in humans (Phase 2 or 3 clinical trials), for their ability to inhibit OC43 infection of the human lung epithelial cell line A549 (expressing an H2B-mRuby nuclear reporter). One day after plating, cells were infected at an MOI of 0.3, incubated at 33° C. for 1 hour and drugs were added to a final concentration of 10 μM. Cells were then incubated at 33° C. for 4 days, fixed and stained for the presence of the viral nucleoprotein. The cells were imaged at day 0 (following drug addition) and day 4 (after staining) to determine the drugs effect on cell growth and OC43 infection.

A549-mRuby cells = test: Drug screening: effect on cell growth (cell number day 4 / day 0); settings: 10 μM drug; for Growth_1: number of cells at day 4 divided by number of cells at day 0 / toxic_1: repeat #1; for Growth_2: number of cells at day 4 divided by number of cells at day 0 / toxic_2: repeat #2
Description: A549-mRuby cells were seeded (3,000 cells per well) in nine 384-well plates using Multidrop combi. Cells were seeded in a final volume of 30 μl with DMEM+10% BCS. The following day, 20 μl of OC43 were added (MOI 0.3) and incubated at 33° C., 5% CO2 for 1 hour. 50 nl from the Selleck FDA-approved drug library (cat #L1300, Selleck) were added (1:1,000 dilution). Two columns (32 wells) were left uninfected and two columns were treated with DMSO and virus (no drug control). Cells were imaged using the IncuCyte S3 to measure cell numbers at day 0. Cells were incubated for 4 days at 33° C., 5% CO2 and were stained for OC43 nucleoprotein. All the following steps were performed at room temperature. […] The screen was performed twice.
as §1, §2

[1] = 10 μM drug, MOI 0.3, 4 days, OC43 staining normalized to no-drug controls, mean of the two screen repeats, read-out: OC43_mean
[2] = 10 μM drug, MOI 0.3, 4 days, normalized to no-drug controls in the same plate, repeat #1, read-out: OC43_1: % staining of OC43 in screen repeat #1
[3] = 10 μM drug, MOI 0.3, 4 days, normalized to no-drug controls in the same plate, repeat #2, read-out: OC43_2: % staining of OC43 in screen repeat #2

Row | Compound | hit_1 (OC43; 10 μM drug, repeat #1) | hit_2 (OC43; 10 μM drug, repeat #2) | activity at 10 µM (OC43; [1]) [%] | activity at 10 µM (OC43; [2]) [%] | activity at 10 µM (OC43; [3]) [%] | Growth_1: number of cells at day 4 divided by number of cells at day 0 (A549-mRuby cells) | toxic_1 (A549-mRuby cells) | Growth_2: number of cells at day 4 divided by number of cells at day 0 (A549-mRuby cells) | toxic_2 (A549-mRuby cells) | OC43_1: % staining of OC43 in screen repeat #1 (OC43; 10 μM drug, MOI 0.3, 4 days, normalized to no-drug controls in the same plate, repeat #1, ditosylate monohydrate) [%] | Growth_1: number of cells at day 4 divided by number of cells at day 0 (A549-mRuby cells; ditosylate monohydrate) | Growth_2: number of cells at day 4 divided by number of cells at day 0 (A549-mRuby cells; ditosylate monohydrate) | activity at 10 µM (OC43; read-out: OC43_mean) [%]
1 | CN1[C@@H]2CC[C@H]1C[C@@H](OC(=O)c1c[nH]c3ccccc13)C2 [Tropisetron HCl] | 1 | 1 | 58 | 52.6 | 63.4 | 5.8 | 0 | 5.5 | 0 | – | – | – | –
2 | CN1CCN(CCCN2c3ccccc3Sc3ccc(Cl)cc32)CC1 [Prochlorperazine Dimaleate] | 1 | 1 | 22.6 | 20.2 | 25 | 3.1 | 0 | 3.0 | 0 | – | – | – | –
3 | CC[C@H]1OC(=O)[C@H](C)[C@@H](O[C@H]2C[C@@](C)(OC)[C@@H](O)[C@H](C)O2)[C@H](C)[C@@H](O[C@@H]2O[C@H](C)C[C@H](N(C)C)[C@H]2O)[C@](C)(O)C[C@@H](C)/C(=N\OCOCCOC)[C@H](C)[C@@H](O)[C@]1(C)O [Roxithromycin] | 1 | 1 | 41.4 | 55.8 | 27.1 | 5.2 | 0 | 5.6 | 0 | – | – | – | –
4 | CS(=O)(=O)CCNCc1ccc(-c2ccc3ncnc(Nc4ccc(OCc5cccc(F)c5)c(Cl)c4)c3c2)o1 [Lapatinib ditosylate monohydrate] | 1 | 1 | 16.6 | – | 9.5 | – | 0 | – | 0 | 23.8 | 4.2 | 4.2 | –
5 | COCCCC/C(=N\OCCN)c1ccc(C(F)(F)F)cc1 [Fluvoxamine maleate] | 1 | 1 | – | 22.7 | 38.9 | 5.4 | 0 | 4.5 | 0 | – | – | – | 30.8
6 | CCC(=O)O[C@H]1[C@H](O[C@@H]2[C@@H](C)[C@H](O[C@H]3C[C@@](C)(OC)[C@@H](O)[C@H](C)O3)[C@@H](C)C(=O)O[C@H](CC)[C@@](C)(O)[C@H](O)[C@@H](C)C(=O)[C@H](C)C[C@@]2(C)O)O[C@H](C)C[C@@H]1N(C)C [Erythromycin estolate] | 1 | 1 | 20.1 | 24.2 | 15.9 | 4.5 | 0 | 4.8 | 0 | – | – | – | –
7 | COc1ccc(NC(=O)c2ccc(C(=N)N(C)C)cc2)c(C(=O)Nc2ccc(Cl)cn2)c1 [Betrixaban maleate] | 1 | 1 | 26.9 | 32 | 21.8 | 4.6 | 0 | 5.7 | 0 | – | – | – | –
8 | CCCOC(C(=O)OC1CCN(C)CC1)(c1ccccc1)c1ccccc1 [Propiverine hydrochloride] | 1 | 1 | 27.3 | 29.5 | 25.2 | 3.0 | 0 | 2.2 | 0 | – | – | – | –
